Measurements: patent US9580487B2, “Method of treating stomach or bowel-related disorders by administering glucagon-like-peptide-2 (GLP-2) analogues” (Zealand Pharma A/S, priority 2005, dated 2017)
Entries after “also recorded” stand apart in the source; their conditions may differ. No end group written: not given here.

How the values were obtained:
[1] = tested on: male C57BL mice; test: Screening for intestinal growth effects (small intestine and colon mass relative to body weight, small intestine-colon sensitivity index); type: in vivo; conditions: for Small intestine mass relative to [Gly2]GLP-2 / Preferential growth of small intestine versus colon (small intestine-colon sensitivity): 30 nmol/kg s.c. twice daily, ten days; for Small intestine mass relative to [Gly2]GLP-2: equimolar [Gly2]GLP-2; for Preferential growth of small intestine versus colon (small intestine-colon sensitivity): relative to [Gly2]GLP-2; for colon mass relative to body weight, % [Gly2]GLP-2 / small intestine-colon sensitivity index, (SI/Colon)X/(SI/Colon)[Gly2]GLP-2 %: male C57BL mice, 30 nmol/kg s.c. twice daily for ten days; for small intestine-colon sensitivity index, (SI/Colon)X/(SI/Colon)[Gly2]GLP-2 %: third value column
In short: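 Groups of six mice were dosed s.c. at 30 nmol/kg twice daily for ten days, with vehicle (PBS, pH 7.4) or equimolar [Gly2]GLP-2 as comparators. The sensitivity index was (SI/Colon) of the compound over that of [Gly2]GLP-2, with ≥1.05 counted as small-intestine-selective and ≤0.95 as colon-selective.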

[2] = tested on: C57BL mice treated with 5-Fluorouracil (5-FU); test: 5-FU-induced small intestinal atrophy (SI-BW, SI length) in mice; type: in vivo; conditions: for 5-FU-induced small intestine atrophy (SI-BW, SI length): 5-405 (810) nmol/kg s.c. b.i.d., 3 days prior to and 4 days with 5-FU 50 mg/kg i.p. daily; for Efficacy on SI-BW compared with 405 nmol/kg [Gly2]GLP-2: equimolar dose; for Efficacy on SI-BW compared with 405 nmol/kg [Gly2]GLP-2 / Efficacy on SI-length compared with 405 nmol/kg [Gly2]GLP-2: 5-FU treated mice; for Efficacy on 5-FU-induced atrophy compared with [Gly2]GLP-2 (figure legends): high/highest doses vs [Gly2]GLP-2 405 nmol/kg
Description: (§1) FIG. 6 is a set of graphs showing the effect of compound 1846 (SEQ ID NO:34) (5, 15, 45, 135, 405 and 810 nmol/kg, s.c., b.i.d.; n=6/dose group) on A) small intestine-to-body weight ratio (SI-BW), and B) small intestinal length (SI length) in mice treated with the cytostatic drug 5-Fluorouracil (5-FU). Compound 1846 (SEQ ID NO:34) was administered for 3 days prior to and for 4 days together with 5-FU, 50 mg/kg, i.p. daily. For reference, [Gly2]GLP-2 (SEQ ID NO:54) (405 nmol/kg) was given to one group of animals. Results from control animals treated with vehicle (PBS) or 5-FU alone are also shown. […] Values are means±SEM. * P<0.05, relative to 5-FU.
as §1, with “FIG. 7” for “FIG. 6”, “compound 1848” for “compound 1846”, “ID NO:36)” for “ID NO:34)”, “Compound 1848” for “Compound 1846”, “5-FU. # P<0.05, relative to [Gly2]GLP-2.” for “5-FU.”
FIG. 8 is a set of graphs showing the effect of compound 1855 (SEQ ID NO:43) (5, 15, 45, 135, and 405 nmol/kg, s.c., b.i.d.; n=6/dose group) on A) small intestine-to-body weight ratio (SI-BW), and B) small intestinal length (SI length) in mice treated with the cytostatic drug 5-Fluorouracil (5-FU). Compound 1855 (SEQ ID NO:43) was administered for 3 days prior to and for 4 days together with 5-FU, 50 mg/kg, i.p. daily. For reference, [Gly2]GLP-2 (405 nmol/kg) was given to one group of animals. Results from control animals treated with vehicle (PBS) or 5-FU alone are also shown. […] Values are means±SEM. * P<0.05, relative to 5-FU. # P<0.05, relative to [Gly2]GLP-2 (SEQ ID NO:54).
FIG. 9 is a set of graphs showing the effect of compound 1857 (SEQ ID NO:45) (5, 15, 45, 135, and 405 nmol/kg, s.c., b.i.d.; n=6/dose group) on A) small intestine-to-body weight ratio (SI-BW), and B) small intestinal length (SI length) in mice treated with the cytostatic drug 5-Fluorouracil (5-FU). Compound 1857 (SEQ ID NO:45) was administered for 3 days prior to and for 4 days together with 5-FU, 50 mg/kg, i.p. daily. For reference, [Gly2]GLP-2 (SEQ ID NO:54) (405 nmol/kg) was given to one group of animals. Results from control animals treated with vehicle (PBS) or 5-FU alone are also shown. […] Values are means±SEM. * P<0.05, relative to 5-FU. # P<0.05, relative to [Gly2]GLP-2 (SEQ ID NO:54).
The rapid rate of proliferation of the small intestinal stem cells, makes them a susceptible target to the cytotoxic effects of the chemotherapeutic agents used in anti-cancer therapies. Consequently, clinical use of the chemotherapeutic agent 5-fluorouracil (5-FU) is frequently associated with small intestinal injury (atrophy and diarrhea in cancer patients. We have previously shown that i.p. administration of 50 mg/kg 5-FU once daily for four days induces significant small intestinal atrophy in C57BL mice. The effect of the lead compounds, 1846 (SEQ ID NO:34), 1848 (SEQ ID NO:36), 1855 (SEQ ID NO:43), and 1857 (SEQ ID NO:45) on 5-FU-induced small intestinal atrophy was investigated in mice. 1846 (SEQ ID NO:34), 1848 (SEQ ID NO:36), 1855 (SEQ ID NO:43), or 1857 (SEQ ID NO:45) were administered twice daily for three days prior to 5-FU and for four days together with 5-FU administration. The lead compounds were each administered at five different doses (5, 15, 45, 135 and 405 nmol/kg) that have been previously shown to effectively stimulate small intestine growth in healthy mice (Example 9). […]

Substance | Small intestine mass relative to [Gly2]GLP-2 [1] | Preferential growth of small intestine versus colon (small intestine-colon sensitivity) [1] | colon mass relative to body weight, % [Gly2]GLP-2 [1] | small intestine-colon sensitivity index, (SI/Colon)X/(SI/Colon)[Gly2]GLP-2 % [1] | 5-FU-induced small intestine atrophy (SI-BW, SI length) [2] | Efficacy on SI-BW compared with 405 nmol/kg [Gly2]GLP-2 [2] | Efficacy on 5-FU-induced atrophy compared with [Gly2]GLP-2 (figure legends) [2] | Efficacy on SI-length compared with 405 nmol/kg [Gly2]GLP-2 [2]
[Gly2, Glu3, Thr5, Ser8, Leu10, Ala11,16,24,28]hGLP-2(1-33)-NH2 [Compound 1855] | increased small intestine mass relative to [Gly2]GLP-2 | supplementary increase in the weight of the small intestine without significant effecting the weight of the colon; also recorded: preferentially stimulating epithelial growth in the small intestine | 88 % [Gly2]GLP-2 | 120 % [Gly2]GLP-2 | prevented 5-FU-induced small intestine atrophy; also recorded: dose-dependently prevented 5-FU-induced SI atrophy and maintained SI-BW at levels similar to PBS controls | significantly more efficacious than 405 nmol/kg [Gly2]GLP-2 | more efficacious than the equimolar dose of [Gly2]GLP-2; also recorded: more efficacious than a high dose of [Gly2]GLP-2 | –
[Gly2, Glu3, Thr5, Ser8, Leu10, Ala11,16,24,28]hGLP-2(1-33)-(Lys)6-NH2 (HGEGTFSSELATILDALAARDFIAWLIATKITDKKKKKK-NH2) [Compound 1848] | increased small intestine mass relative to [Gly2]GLP-2 | supplementary increase in the weight of the small intestine without significant effecting the weight of the colon; also recorded: preferentially stimulating epithelial growth in the small intestine | 93 % [Gly2]GLP-2 | 117 % [Gly2]GLP-2 | prevented 5-FU-induced small intestine atrophy; also recorded: dose-dependently prevented 5-FU-induced SI atrophy and maintained SI-BW at levels similar to PBS controls | significantly more efficacious than 405 nmol/kg [Gly2]GLP-2 | more efficacious than [Gly2]GLP-2 | significantly more efficacious than 405 nmol/kg [Gly2]GLP-2
[Gly2, Glu3, Ser8,11, Leu10, Ala16,24,28]hGLP-2(1-33)-(Lys)6-NH2 (HGEGSFSSELSTILDALAARDFIAWLIATKITDKKKKKK-NH2) [Compound 1846] | increased small intestine mass relative to [Gly2]GLP-2 | supplementary increase in the weight of the small intestine without significant effecting the weight of the colon; also recorded: preferentially stimulating epithelial growth in the small intestine | 102 % [Gly2]GLP-2 | 118 % [Gly2]GLP-2 | prevented 5-FU-induced small intestine atrophy; also recorded: dose-dependently prevented 5-FU-induced SI atrophy and maintained SI-BW at levels similar to PBS controls | – | – | –
[Gly2, Glu3, Leu10, Ser11, Ala16,24,28]hGLP-2(1-33)-NH2 [Compound 1857] | increased small intestine mass relative to [Gly2]GLP-2 | preferentially stimulating epithelial growth in the small intestine | 90 % [Gly2]GLP-2 | 130 % [Gly2]GLP-2 | prevented 5-FU-induced small intestine atrophy; also recorded: dose-dependently prevented 5-FU-induced SI atrophy and maintained SI-BW at levels similar to PBS controls | significantly more efficacious than 405 nmol/kg [Gly2]GLP-2 | – | significantly more efficacious than 405 nmol/kg [Gly2]GLP-2
